According to publication PMC5426640, “A novel multifunctional peptide oligomer of bacitracin with possible bioindustrial and therapeutic applications from a Korean food-source Bacillus strain” (PLoS ONE, 2017):
Where a SMILES comes first, the peptide text is derived from it. Bridges are numbered along the chain shown (N, C = ends). [ ]: non-standard residue; d: D form. The star is where a group is joined. Ileψ(thiazoline)Cys = CC[C@H](C)[C@H](N)C1=N[C@H](C(=O)*)CS1; dOrn = NCCC[C@@H](N)C(=O)O

Legend:
[1] = test system: COX-2; assay: Western blot of protein expression in LPS-stimulated RAW 264.7 cells; type: cell-based, mouse; conditions: 10, 50, or 100 μg/mL, LPS 1 μg/mL, 24 h
Description: (§1) Macrophages were incubated with or without LPS in the presence or absence of the AMPs. Cells were harvested, washed twice with ice-cold Tris-HCl-buffered saline (TBS), and resuspended in lysis buffer [100 mM Tris-HCl, 5 mM EDTA, 50 mM NaCl, 50 mM β- glycerophosphate, 50 mM NaF (sodium fluoride), 0.5% NP-40, 1% sodium deoxycholate, 0.1 mM sodium orthovanadate, and 1% phenylmethylsulfonyl fluoride (PMSF)]. The cytosolic fraction was obtained from the supernatant after […] centrifugation at 4°C for 20 min. Samples (20 μg in terms of protein) were separated by sodium dodecyl sulfate-polyacrylamide gel electrophoresis (SDS-PAGE) in a 10% gel and transferred to polyvinylidene difluoride (PVDF) membranes. The membranes were blocked with 5% nonfat milk in TBS with Tween 20 (0.1%) for 2 h and then incubated with primary antibodies specific for ERK, phospho-ERK, JNK, phospho-JNK, p38 MAPK, phospho-p38 MAPK (all them from Cell Signaling Technology), NF-κB, IκB, and phospho-IκB (1:1000; Santa Cruz Biotechnology). […] After three washes with TBS–Tween 20, the membrane was hybridized with an HRP-conjugated secondary antibody for 1 h. […] The immunoreactive proteins were detected by means of a LAS-3000 Luminescent image analyzer (Fuji Photo Film Co., Ltd., Tokyo, Japan).

[2] = test system: iNOS; assay: as above; type: cell-based, mouse; conditions: 10, 50, or 100 μg/mL, LPS 1 μg/mL, 24 h
Description: as §1

[3] = test system: IL-1β mRNA; assay: RT-PCR of mRNA expression in LPS-stimulated RAW 264.7 cells; type: cell-based, mouse; conditions: 10, 50, or 100 μg/mL, LPS 2–12 h, GAPDH control
Description: (§2) Total RNA from the AMP-treated cells was prepared using the RNAiso Reagent (Takara) and was stored at −80°C until use. For the detection of iNOS, COX-2, TNF-α, IL-Iβ, and IL-6, total RNA was extracted after stimulation and treatment. The mRNA expression levels of iNOS, COX-2, TNF-α, IL-Iβ, and IL-6 in the treated cells were compared to the expression levels in control cells. One microgram of RNA was reverse-transcribed into cDNA and used as a template for PCR amplification. PCR was performed on a DNA Gene Cycler, under the following conditions: 40 cycles of denaturation at 94°C for 30 s, annealing at 58°C for 30 s, and primer extension at 72°C for 40 s. PCR products were analyzed on 1% agarose gels, and bands were visualized by ethidium bromide staining.

[4] = test system: COX-2 mRNA; assay: as above; type: cell-based, mouse; conditions: 10, 50, or 100 μg/mL, LPS 2–12 h, GAPDH control
Description: as §2

[5] = test system: IL-6 mRNA; assay: as above; type: cell-based, mouse; conditions: 10, 50, or 100 μg/mL, LPS 2–12 h, GAPDH control
Description: as §2

[6] = test system: TNF-α mRNA; assay: as above; type: cell-based, mouse; conditions: 10, 50, or 100 μg/mL, LPS 2–12 h, GAPDH control
Description: as §2

[7] = test system: iNOS mRNA; assay: as above; type: cell-based, mouse; conditions: 10, 50, or 100 μg/mL, LPS 2–12 h, GAPDH control
Description: as §2

[8] = test system: Micrococcus luteus ATCC 9341; assay: Thermostability, residual antimicrobial activity; type: physicochemical; conditions: residual antimicrobial activity vs Micrococcus luteus ATCC 9341, mean ± SD, n = 3
Description: (§3) After heat treatment (30–121°C, 10–60 min), the samples were tested for residual antimicrobial activity against indicator strain Micrococcus luteus ATCC 9341. Effects of pH on antimicrobial activity were estimated by varying the pH levels. Samples were diluted in the following buffers: citrate with Na2HPO4 (pH 3.0–7.0), Tris-HCl (pH 7.0–9.0), and NaHCO3 with NaOH (pH 10.0–11.0). After incubation for 1 h at room temperature, pH in the samples was adjusted to 7.0, and the samples were tested for antimicrobial activity against the indicator strain. The AMP was digested with various proteolytic enzymes at a final concentration of 1 mg/mL: […] (50 mM Tris-HCl, pH 7.5), protease K (50 mM Tris-HCl, pH 7.5), α-chymotrypsin (50 mM Tris-HCl, pH 7.5), or trypsin (50 mM Tris-HCl, pH 8.0). After 1-h incubation at room temperature, the enzymes were boiled for 2 min for inactivation.

[9] = test system: p38 MAPK; assay: Western blot of LPS-induced MAPK phosphorylation in RAW 264.7 cells; type: cell-based, mouse; conditions: 10–100 μg/mL, LPS 1 μg/mL
Description: (§4) Macrophages were incubated with or without LPS in the presence or absence of the AMPs. Cells were harvested, washed twice with ice-cold Tris-HCl-buffered saline (TBS), and resuspended in lysis buffer [100 mM Tris-HCl, 5 mM EDTA, 50 mM NaCl, 50 mM β- glycerophosphate, 50 mM NaF (sodium fluoride), 0.5% NP-40, 1% sodium deoxycholate, 0.1 mM sodium orthovanadate, and 1% phenylmethylsulfonyl fluoride (PMSF)]. The cytosolic fraction was obtained from the supernatant after […] centrifugation at 4°C for 20 min. Samples (20 μg in terms of protein) were separated by sodium dodecyl sulfate-polyacrylamide gel electrophoresis (SDS-PAGE) in a 10% gel and transferred to polyvinylidene difluoride (PVDF) membranes. The membranes were blocked with 5% nonfat milk in TBS with Tween 20 (0.1%) for 2 h and then incubated with primary antibodies specific for ERK, phospho-ERK, JNK, phospho-JNK, p38 MAPK, phospho-p38 MAPK (all them from Cell Signaling Technology), NF-κB, IκB, and phospho-IκB (1:1000; Santa Cruz Biotechnology). […] After three washes with TBS–Tween 20, the membrane was hybridized with an HRP-conjugated secondary antibody for 1 h. The membranes were washed three times for 10 min and developed with the ECL Western Blotting Detection System (GE Healthcare, Incheon, Republic of Korea,). The immunoreactive proteins were detected by means of a LAS-3000 Luminescent image analyzer (Fuji Photo Film Co., Ltd., Tokyo, Japan).

[10] = test system: ERK; assay: as above; type: cell-based, mouse; conditions: 10–100 μg/mL, LPS 1 μg/mL
Description: as §4

[11] = test system: JNK; assay: as above; type: cell-based, mouse; conditions: 10–100 μg/mL, LPS 1 μg/mL
Description: as §4

[12] = test system: IL-6; assay: ELISA of cytokine production in LPS-stimulated RAW 264.7 cells; type: cell-based, mouse; conditions: 10–100 μg/mL before LPS 1 μg/mL for 24 h; ELISA of supernatant
Description: (§5) The concentration of nitrite in the supernatant was calculated using a sodium nitrite standard curve. The supernatant was analyzed for TNF-α, IL-1β, and IL-6 by ELISAs using commercial kits (BD Biosciences) according to the manufacturer’s instructions.

[13] = test system: TNF-α; assay: as above; type: cell-based, mouse; conditions: 10–100 μg/mL before LPS 1 μg/mL for 24 h; ELISA of supernatant
Description: as §5

[14] = test system: IL-1β; assay: as above; type: cell-based, mouse; conditions: 10–100 μg/mL before LPS 1 μg/mL for 24 h; ELISA of supernatant
Description: as §5

[15] = test system: Micrococcus luteus ATCC 9341; assay: pH stability, residual antimicrobial activity; type: physicochemical; conditions: 1 h at room temperature, residual antimicrobial activity vs indicator strain, n = 3
Description: as §3

CC[C@H](C)[C@H](N)C1=N[C@H](C(=O)N[C@@H](CC(C)C)C(=O)N[C@H](CCC(=O)O)C(=O)N[C@H](C(=O)N[C@H]2CCCCNC(=O)[C@H](CC(N)=O)NC(=O)[C@@H](CC(=O)O)NC(=O)[C@H](Cc3c[nH]cn3)NC(=O)[C@@H](Cc3ccccc3)NC(=O)[C@H]([C@@H](C)CC)NC(=O)[C@@H](CCCN)NC2=O)[C@@H](C)CC)CS1 [CSP32] ({Ileψ(thiazoline)Cys}-L[dE]IK[dOrn]I[dF]H[dD]N; lactam 4-C; N-terminus assumed)
Effect on LPS-induced COX-2 protein expression [1]: significantly attenuated this induction in a dose-dependent manner | Effect on LPS-induced iNOS protein expression [2]: significantly attenuated this induction in a dose-dependent manner | Effect on LPS-induced IL-1β mRNA expression [3]: dose-dependently attenuated the LPS-enhanced expression | Effect on LPS-induced COX-2 mRNA expression [4]: significantly attenuated iNOS and COX-2 mRNA upregulation in a dose-dependent manner | Effect on LPS-induced IL-6 mRNA expression [5]: dose-dependently attenuated the LPS-enhanced expression | Effect on LPS-induced TNF-α mRNA expression [6]: dose-dependently attenuated the LPS-enhanced expression | Effect on LPS-induced iNOS mRNA expression [7]: significantly attenuated iNOS and COX-2 mRNA upregulation in a dose-dependent manner | Residual activity (%) ([8]; heat treatment 30°C, 10 min): 100% | Residual activity (%) ([8]; heat treatment 30°C, 30 min, SD): 100±0.28% | Residual activity (%) ([8]; heat treatment 30°C, 60 min, SD): 100±0.34% | Residual activity (%) ([8]; heat treatment 50°C, 10 min, SD): 100±0.94% | Residual activity (%) ([8]; heat treatment 50°C, 30 min, SD): 98.40±0.39% | Residual activity (%) ([8]; heat treatment 50°C, 60 min, SD): 98.07±0.36% | Residual activity (%) ([8]; heat treatment 70°C, 10 min, SD): 98.07±0.41% | Residual activity (%) ([8]; heat treatment 70°C, 30 min, SD): 98.00±0.41% | Residual activity (%) ([8]; heat treatment 70°C, 60 min, SD): 98.07±0.39% | Residual activity (%) ([8]; heat treatment 90°C, 10 min, SD): 97.73±1.04% | Residual activity (%) ([8]; heat treatment 121°C, 15 min, SD): 65.40±0.17% | Effect on LPS-induced phosphorylation of p38 MAPK [9]: Phosphorylation decreased in a dose-dependent manner | Effect on LPS-induced phosphorylation of ERK [10]: Phosphorylation decreased in a dose-dependent manner | Effect on LPS-induced phosphorylation of JNK [11]: Phosphorylation decreased in a dose-dependent manner | Effect on LPS-induced IL-6 release [12]: significantly attenuated | Effect on LPS-induced TNF-α release [13]: significantly attenuated | Effect on LPS-induced IL-1β release [14]: significantly attenuated | Residual activity (%) ([15]; pH 2, then adjusted to pH 7.0, mean ± SD, SD): 61.33±1.04% | Residual activity (%) ([15]; pH 3, citrate with Na2HPO4, then adjusted to pH 7.0, mean ± SD, SD): 63.00±1.04% | Residual activity (%) ([15]; pH 4, citrate with Na2HPO4, then adjusted to pH 7.0, mean ± SD, SD): 89.60±3.44% | Residual activity (%) ([15]; pH 6, citrate with Na2HPO4, then adjusted to pH 7.0, mean ± SD, SD): 100±0.50% | Residual activity (%) ([15]; pH 7): 100% | Residual activity (%) ([15]; pH 8, Tris-HCl, then adjusted to pH 7.0, mean ± SD, SD): 100±0.20% | Residual activity (%) ([15]; pH 9, Tris-HCl, then adjusted to pH 7.0, mean ± SD, SD): 100±1.15% | Residual activity (%) ([15]; pH 10, NaHCO3 with NaOH, then adjusted to pH 7.0, mean ± SD, SD): 98±3.38% | Residual activity (%) ([15]; pH 11, NaHCO3 with NaOH, then adjusted to pH 7.0, mean ± SD, SD): 91.33±0.06% | Residual activity (%) ([15]; pH 12, then adjusted to pH 7.0, mean ± SD, SD): 91.77±0.06%
